Data taken from ChEMBL document CHEMBL1201862, “PubChem BioAssay data set” (2004).
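Where inhibition never reached the appropriate level, the endpoint shown equals the highest concentration tested. Otherwise, values were interpolated linearly from a five-concentration, 48-hour dose response in 96-well plates. GI50 = concentration required for 50% inhibition of growth.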 Active and inactive are the calls of the source. Rule as the data show it: active = GI50 up to about 1.1 µM and inactive = higher.

Assays:
Assay in all cases: inhibition of tumour cell growth, NCI panel, 48 h
[1] = test system: SNB-19
[2] = test system: HOP-92
[3] = test system: NCI-H23
[4] = test system: SK-MEL-28
[5] = test system: ACHN
[6] = test system: UO-31
[7] = test system: SW-620
[8] = test system: SF-268
[9] = test system: 786-0
[10] = test system: NCI/ADR-RES
[11] = test system: CAKI-1
[12] = test system: IGROV-1
[13] = test system: OVCAR-4
[14] = test system: A549
[15] = test system: EKVX
[16] = test system: SK-MEL-2
[17] = test system: U-251
[18] = test system: SN12C
[19] = test system: OVCAR-5
[20] = test system: TK-10
[21] = test system: HOP-62
[22] = test system: DU-145
[23] = test system: SNB-75
[24] = test system: SK-OV-3
[25] = test system: MDA-MB-231
[26] = test system: HCT-116
[27] = test system: MCF7
[28] = test system: COLO 205
[29] = test system: CCRF-CEM
[30] = test system: OVCAR-3
[31] = test system: HL-60
[32] = test system: M14
[33] = test system: Malme-3M
[34] = test system: A498
[35] = test system: LOX IMVI
[36] = test system: UACC-257
[37] = test system: MOLT-4
[38] = test system: SK-MEL-5
[39] = test system: MDA-MB-435
[40] = test system: HCT-15
[41] = test system: NCI-H226
[42] = test system: PC-3
[43] = test system: OVCAR-8
[44] = test system: NCI-H460
[45] = test system: HCC 2998
[46] = test system: HT-29
[47] = test system: SF-295
[48] = test system: KM12
[49] = test system: NCI-H522
[50] = test system: BT-549
[51] = test system: K562
[52] = test system: SF-539
[53] = test system: RPMI-8226
[54] = test system: T47D
[55] = test system: UACC-62
[56] = test system: SR
[57] = test system: MDA-N
[58] = test system: RXF 393

With c1ccc(-c2nnc(CCCCCCCCc3nnc(-c4ccccc4)o3)o2)cc1 the GI50 [1] was > 100 µM (inactive), the GI50 [2] was 50.9 µM (inactive) and the GI50 [3] was > 100 µM (inactive). The GI50 [4] was > 100 µM (inactive), the GI50 [5] was > 100 µM (inactive) and the GI50 [6] was > 100 µM (inactive). For the same compound, the GI50 [7] was > 100 µM (inactive), the GI50 [8] was > 100 µM (inactive) and the GI50 [9] was 74 µM (inactive). The GI50 [10] was > 100 µM (inactive), the GI50 [11] was 46 µM (inactive) and the GI50 [12] was 66.5 µM (inactive). The GI50 [13] was > 100 µM (inactive), the GI50 [14] was 32 µM (inactive) and the GI50 [15] was > 100 µM (inactive). For the same compound, the GI50 [16] was > 100 µM (inactive), the GI50 [17] was 53 µM (inactive) and the GI50 [18] was > 100 µM (inactive). For the same compound, the GI50 [19] was > 100 µM (inactive), the GI50 [20] was > 100 µM (inactive) and the GI50 [21] was 97.3 µM (inactive). The GI50 [22] was > 100 µM (inactive), the GI50 [23] was > 100 µM (inactive) and the GI50 [24] was > 100 µM (inactive). For the same compound, the GI50 [25] was 12.2 µM (inactive), the GI50 [26] was 55.6 µM (inactive) and the GI50 [27] was 38.2 µM (inactive). For the same compound, the GI50 [28] was > 100 µM (inactive), the GI50 [29] was 52.5 µM (inactive) and the GI50 [30] was 65 µM (inactive). The GI50 [31] was 30.6 µM (inactive), the GI50 [32] was > 100 µM (inactive) and the GI50 [33] was > 100 µM (inactive). The GI50 [34] was 16.1 µM (inactive), the GI50 [35] was 48.9 µM (inactive) and the GI50 [36] was 42.2 µM (inactive). The GI50 [37] was 51.4 µM (inactive), the GI50 [38] was > 100 µM (inactive) and the GI50 [39] was > 100 µM (inactive). For the same compound, the GI50 [40] was > 100 µM, the GI50 [41] was > 100 µM (inactive) and the GI50 [42] was > 100 µM (inactive). For the same compound, the GI50 [43] was > 100 µM (inactive), the GI50 [44] was 50.5 µM (inactive) and the GI50 [45] was < 0.01 µM (active). The GI50 [46] was 45.1 µM (inactive), the GI50 [47] was > 100 µM (inactive) and the GI50 [48] was 63.8 µM (inactive). For the same compound, the GI50 [49] was 25.9 µM (inactive), the GI50 [50] was > 100 µM (inactive) and the GI50 [51] was 34.7 µM (inactive). The GI50 [52] was > 100 µM (inactive).
For CC1(C)COC(c2cccc(C3=NC(C)(C)CO3)c2)=N1, the GI50 [1] was > 100 µM (inactive), the GI50 [2] was > 100 µM (inactive) and the GI50 [3] was > 100 µM (inactive). For the same compound, the GI50 [4] was > 100 µM (inactive), the GI50 [5] was > 100 µM (inactive) and the GI50 [6] was > 100 µM (inactive). For the same compound, the GI50 [7] was > 100 µM (inactive), the GI50 [53] was > 100 µM (inactive) and the GI50 [8] was > 100 µM (inactive). The GI50 [9] was > 100 µM (inactive), the GI50 [10] was > 100 µM (inactive) and the GI50 [11] was > 100 µM (inactive). The GI50 [12] was > 100 µM (inactive), the GI50 [13] was 83.9 µM (inactive) and the GI50 [14] was > 100 µM (inactive). The GI50 [15] was > 100 µM (inactive), the GI50 [54] was 3.75 µM (inactive) and the GI50 [16] was > 100 µM (inactive). For the same compound, the GI50 [17] was > 100 µM (inactive), the GI50 [19] was > 100 µM (inactive) and the GI50 [20] was > 100 µM (inactive). The GI50 [21] was > 100 µM (inactive), the GI50 [22] was > 100 µM (inactive) and the GI50 [25] was > 100 µM (inactive). The GI50 [26] was > 100 µM (inactive), the GI50 [27] was > 100 µM (inactive) and the GI50 [28] was > 100 µM (inactive). The GI50 [55] was 64.3 µM (inactive), the GI50 [30] was 0.0375 µM (active) and the GI50 [32] was > 100 µM (inactive). For the same compound, the GI50 [33] was > 100 µM (inactive), the GI50 [35] was > 100 µM (inactive) and the GI50 [36] was > 100 µM (inactive). The GI50 [56] was > 100 µM (inactive), the GI50 [37] was > 100 µM (inactive) and the GI50 [38] was > 100 µM (inactive). The GI50 [39] was > 100 µM (inactive), the GI50 [40] was > 100 µM and the GI50 [41] was > 100 µM (inactive). For the same compound, the GI50 [42] was > 100 µM (inactive), the GI50 [43] was > 100 µM (inactive) and the GI50 [44] was > 100 µM (inactive). The GI50 [45] was > 100 µM (inactive), the GI50 [46] was > 100 µM (inactive) and the GI50 [48] was > 100 µM (inactive). For the same compound, the GI50 [50] was > 100 µM (inactive), the GI50 [51] was > 100 µM (inactive) and the GI50 [52] was > 100 µM (inactive).
COC(=O)[C@@]12CCCC(=O)[C@@H]1[C@H]1CCC[C@H]12 was tested, and the GI50 [1] was > 100 µM (inactive), the GI50 [2] was > 100 µM (inactive) and the GI50 [3] was > 100 µM (inactive). For the same compound, the GI50 [4] was > 100 µM (inactive), the GI50 [5] was > 100 µM (inactive) and the GI50 [6] was > 100 µM (inactive). The GI50 [7] was > 100 µM (inactive), the GI50 [53] was > 100 µM (inactive) and the GI50 [8] was > 100 µM (inactive). For the same compound, the GI50 [9] was > 100 µM (inactive), the GI50 [10] was > 100 µM (inactive) and the GI50 [11] was > 100 µM (inactive). For the same compound, the GI50 [12] was > 100 µM (inactive), the GI50 [13] was > 100 µM (inactive) and the GI50 [14] was > 100 µM (inactive). The GI50 [15] was > 100 µM (inactive), the GI50 [16] was > 100 µM (inactive) and the GI50 [17] was > 100 µM (inactive). The GI50 [18] was > 100 µM (inactive), the GI50 [57] was > 100 µM (inactive) and the GI50 [19] was > 100 µM (inactive). The GI50 [20] was > 100 µM (inactive), the GI50 [21] was > 100 µM (inactive) and the GI50 [22] was > 100 µM (inactive). The GI50 [23] was > 100 µM (inactive), the GI50 [24] was > 100 µM (inactive) and the GI50 [25] was > 100 µM (inactive). For the same compound, the GI50 [26] was > 100 µM (inactive), the GI50 [27] was > 100 µM (inactive) and the GI50 [58] was > 100 µM (inactive). For the same compound, the GI50 [28] was > 100 µM (inactive), the GI50 [55] was > 100 µM (inactive) and the GI50 [29] was > 100 µM (inactive). The GI50 [30] was > 100 µM (inactive), the GI50 [32] was > 100 µM (inactive) and the GI50 [33] was > 100 µM (inactive). For the same compound, the GI50 [35] was > 100 µM (inactive), the GI50 [36] was > 100 µM (inactive) and the GI50 [56] was > 100 µM (inactive). For the same compound, the GI50 [37] was > 100 µM (inactive), the GI50 [38] was > 100 µM (inactive) and the GI50 [39] was > 100 µM (inactive). The GI50 [40] was > 100 µM, the GI50 [41] was > 100 µM (inactive) and the GI50 [42] was > 100 µM (inactive). The GI50 [43] was > 100 µM (inactive), the GI50 [44] was > 100 µM (inactive) and the GI50 [45] was > 100 µM (inactive). For the same compound, the GI50 [46] was > 100 µM (inactive), the GI50 [47] was > 100 µM (inactive) and the GI50 [48] was > 100 µM (inactive). The GI50 [49] was > 100 µM (inactive), the GI50 [50] was > 100 µM (inactive) and the GI50 [51] was > 100 µM (inactive). For the same compound, the GI50 [52] was > 100 µM (inactive).
